According to patent publication US11173137B2, “Compositions and methods to modulate chloride ion channel activity” (The Board of Trustees of the Leland Stanford Junior …, priority 2018, dated 2021):

Assays:
CLC-2 = CLC-2 (Homo sapiens (Human), UniProt P51788); conditions: preliminary data, Xenopus oocytes
CLC-1 = CLC-1 (Homo sapiens (Human), UniProt P35523); assay: two-electrode voltage clamp electrophysiology in Xenopus oocytes, CLC-1; assay type: cell-based; conditions: preliminary data, read-out: IC50 against CLC-1
mGluR2 = mGluR2 (Homo sapiens (Human), UniProt Q14416); assay: PDSP functional assay; assay type: biochemical; conditions: only a functional assay was performed
Procedure: (§1) Two exemplary compounds, FA44 and FA26, were screened against a panel of CNS receptors, transporters, and ion channels to examine specificity for CLC-2 in the brain. A comprehensive primary binding assay screen was performed through the NIH Psychoactive Drug Screening Program (PDSP) at UNC-Chapel Hill. Secondary or functional assays were performed for compounds showing >50% activity in the primary assay.

mGluR6 = mGluR6 (Homo sapiens (Human), UniProt O15303); assay: PDSP functional assay; assay type: biochemical; conditions: only a functional assay was performed
Procedure: as §1

mGluR8 = mGluR8 (Homo sapiens (Human), UniProt O00222); assay: PDSP functional assay; assay type: biochemical; conditions: only a functional assay was performed
Procedure: as §1

mGluR4 = mGluR4 (Homo sapiens (Human), UniProt Q14833); assay: PDSP functional assay; assay type: biochemical; conditions: only a functional assay was performed
Procedure: as §1

M5 = M5 (Homo sapiens (Human), UniProt P08912); assay: PDSP primary binding assay and secondary assay; conditions: for % (10 μM): primary binding assay at 10 μM; for Ki: secondary or functional assay
Procedure: as §1

mGluR5 = mGluR5 (Homo sapiens (Human), UniProt P41594); assay: PDSP primary binding assay and secondary assay; conditions: for % (10 μM): primary binding assay at 10 μM; for Ki: secondary or functional assay
Procedure: as §1

Alpha2A = Alpha2A (Homo sapiens (Human), UniProt P08913); assay: PDSP primary binding assay and secondary assay; conditions: for % (10 μM): primary binding assay at 10 μM
Procedure: as §1

5-HT1A = 5-HT1A (Homo sapiens (Human), UniProt P08908); assay: PDSP primary binding assay and secondary assay; conditions: for % (10 μM): primary binding assay at 10 μM; for Ki: secondary or functional assay
Procedure: as §1

HERG = HERG (Homo sapiens (Human), UniProt Q12809); assay: PDSP primary binding assay and secondary assay; conditions: for % (10 μM): primary binding assay at 10 μM
Procedure: as §1

M1 = M1 (Homo sapiens (Human), UniProt P11229); assay: PDSP primary binding assay and secondary assay; conditions: for % (10 μM): primary binding assay at 10 μM
Procedure: as §1

M3 = M3 (Homo sapiens (Human), UniProt P20309); assay: PDSP primary binding assay and secondary assay; conditions: for % (10 μM): primary binding assay at 10 μM; for Ki: secondary or functional assay
Procedure: as §1

M4 = M4 (Homo sapiens (Human), UniProt P08173); assay: PDSP primary binding assay and secondary assay; conditions: for % (10 μM): primary binding assay at 10 μM
Procedure: as §1

D3 = D3 (Homo sapiens (Human), UniProt P35462); assay: PDSP primary binding assay; conditions: primary binding assay at 10 μM
Procedure: as §1

5-HT6 = 5-HT6 (Homo sapiens (Human), UniProt P50406); assay: PDSP primary binding assay; conditions: primary binding assay at 10 μM
Procedure: as §1

AMPA = assay: PDSP primary binding assay; conditions: primary binding assay at 10 μM
Procedure: as §1

Sigma 1 = Sigma 1 (Homo sapiens (Human), UniProt Q99720); assay: PDSP primary binding assay; conditions: primary binding assay at 10 μM
Procedure: as §1

Beta1 = Beta1 (Homo sapiens (Human), UniProt P08588); assay: PDSP primary binding assay; conditions: primary binding assay at 10 μM
Procedure: as §1

H1 = H1 (Homo sapiens (Human), UniProt P35367); assay: PDSP primary binding assay; conditions: primary binding assay at 10 μM
Procedure: as §1

5-HT1E = 5-HT1E (Homo sapiens (Human), UniProt P28566); assay: PDSP primary binding assay; conditions: primary binding assay at 10 μM
Procedure: as §1

H2 = H2 (Homo sapiens (Human), UniProt P25021); assay: PDSP primary binding assay; conditions: primary binding assay at 10 μM
Procedure: as §1

Beta3 = Beta3 (Homo sapiens (Human), UniProt P13945); assay: PDSP primary binding assay; conditions: primary binding assay at 10 μM
Procedure: as §1

M2 = M2 (Homo sapiens (Human), UniProt P08172); assay: PDSP primary binding assay; conditions: primary binding assay at 10 μM
Procedure: as §1

Oxytocin = Oxytocin (Homo sapiens (Human), UniProt P30559); assay: PDSP primary binding assay; conditions: primary binding assay at 10 μM
Procedure: as §1

[1] = tested on: panel of CNS receptors, channels, and transporters; assay: PDSP screen against panel of CNS receptors, transporters, and ion channels (overall); assay type: binding
Procedure: as §1

V1A = V1A (Homo sapiens (Human), UniProt P37288); assay: PDSP primary binding assay; conditions: primary binding assay at 10 μM
Procedure: as §1

A2A = A2A (Homo sapiens (Human), UniProt P29274); assay: PDSP primary binding assay; conditions: primary binding assay at 10 μM
Procedure: as §1

V1B = V1B (Homo sapiens (Human), UniProt P47901); assay: PDSP primary binding assay; conditions: primary binding assay at 10 μM
Procedure: as §1

M1, sequence (P11229 whole entry): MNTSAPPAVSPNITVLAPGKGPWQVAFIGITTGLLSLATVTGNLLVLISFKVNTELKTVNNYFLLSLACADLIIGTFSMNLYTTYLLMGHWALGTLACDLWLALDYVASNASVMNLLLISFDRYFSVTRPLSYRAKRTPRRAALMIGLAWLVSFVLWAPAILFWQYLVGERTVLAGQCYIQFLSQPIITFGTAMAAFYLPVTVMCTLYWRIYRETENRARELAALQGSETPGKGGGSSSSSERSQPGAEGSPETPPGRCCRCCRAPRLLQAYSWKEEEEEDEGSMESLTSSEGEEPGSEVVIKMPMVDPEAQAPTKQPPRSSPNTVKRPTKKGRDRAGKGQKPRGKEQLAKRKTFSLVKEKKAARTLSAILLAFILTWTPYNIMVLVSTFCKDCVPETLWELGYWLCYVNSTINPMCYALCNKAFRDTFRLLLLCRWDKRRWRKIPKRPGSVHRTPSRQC
M3, sequence (P20309 whole entry): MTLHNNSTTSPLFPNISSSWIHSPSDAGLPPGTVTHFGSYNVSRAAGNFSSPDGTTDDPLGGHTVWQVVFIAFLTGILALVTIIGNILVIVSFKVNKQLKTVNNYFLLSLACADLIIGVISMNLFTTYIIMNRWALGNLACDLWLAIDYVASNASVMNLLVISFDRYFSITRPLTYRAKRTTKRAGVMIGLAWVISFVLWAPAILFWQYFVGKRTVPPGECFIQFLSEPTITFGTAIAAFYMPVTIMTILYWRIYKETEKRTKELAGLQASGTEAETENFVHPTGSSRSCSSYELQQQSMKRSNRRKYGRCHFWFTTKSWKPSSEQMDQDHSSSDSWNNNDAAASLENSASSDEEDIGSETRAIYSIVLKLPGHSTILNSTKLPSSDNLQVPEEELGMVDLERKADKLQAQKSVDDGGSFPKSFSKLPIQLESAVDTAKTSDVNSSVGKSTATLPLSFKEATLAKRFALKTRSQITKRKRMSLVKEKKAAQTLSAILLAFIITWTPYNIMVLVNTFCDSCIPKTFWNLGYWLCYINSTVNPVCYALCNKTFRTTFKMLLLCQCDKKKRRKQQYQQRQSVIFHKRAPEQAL
M5, sequence (P08912 whole entry): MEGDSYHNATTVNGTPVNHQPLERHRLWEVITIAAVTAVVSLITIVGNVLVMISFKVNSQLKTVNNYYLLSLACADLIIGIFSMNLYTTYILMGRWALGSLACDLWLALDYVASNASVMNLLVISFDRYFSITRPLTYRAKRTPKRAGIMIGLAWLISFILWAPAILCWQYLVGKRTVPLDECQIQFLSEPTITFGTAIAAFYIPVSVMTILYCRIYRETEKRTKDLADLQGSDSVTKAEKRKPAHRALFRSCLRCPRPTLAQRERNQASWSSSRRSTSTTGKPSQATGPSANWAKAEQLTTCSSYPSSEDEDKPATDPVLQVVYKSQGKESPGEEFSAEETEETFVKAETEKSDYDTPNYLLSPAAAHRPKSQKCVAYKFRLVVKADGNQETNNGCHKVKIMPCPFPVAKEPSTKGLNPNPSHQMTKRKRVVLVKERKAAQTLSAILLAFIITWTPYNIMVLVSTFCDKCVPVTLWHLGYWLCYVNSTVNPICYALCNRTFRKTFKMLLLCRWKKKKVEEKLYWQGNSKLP
5-HT1A, sequence (P08908 whole entry, species assumed): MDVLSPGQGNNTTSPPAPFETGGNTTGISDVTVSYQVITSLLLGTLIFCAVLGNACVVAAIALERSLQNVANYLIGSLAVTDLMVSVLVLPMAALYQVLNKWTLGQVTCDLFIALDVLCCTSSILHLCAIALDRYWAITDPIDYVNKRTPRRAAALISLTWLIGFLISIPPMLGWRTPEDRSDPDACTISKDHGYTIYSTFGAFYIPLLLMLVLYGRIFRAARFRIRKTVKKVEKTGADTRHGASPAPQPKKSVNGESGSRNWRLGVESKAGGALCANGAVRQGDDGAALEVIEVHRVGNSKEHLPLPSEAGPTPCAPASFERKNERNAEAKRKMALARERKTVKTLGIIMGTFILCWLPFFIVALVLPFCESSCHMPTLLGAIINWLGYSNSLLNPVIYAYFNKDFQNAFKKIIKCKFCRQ
M4, sequence (P08173 whole entry): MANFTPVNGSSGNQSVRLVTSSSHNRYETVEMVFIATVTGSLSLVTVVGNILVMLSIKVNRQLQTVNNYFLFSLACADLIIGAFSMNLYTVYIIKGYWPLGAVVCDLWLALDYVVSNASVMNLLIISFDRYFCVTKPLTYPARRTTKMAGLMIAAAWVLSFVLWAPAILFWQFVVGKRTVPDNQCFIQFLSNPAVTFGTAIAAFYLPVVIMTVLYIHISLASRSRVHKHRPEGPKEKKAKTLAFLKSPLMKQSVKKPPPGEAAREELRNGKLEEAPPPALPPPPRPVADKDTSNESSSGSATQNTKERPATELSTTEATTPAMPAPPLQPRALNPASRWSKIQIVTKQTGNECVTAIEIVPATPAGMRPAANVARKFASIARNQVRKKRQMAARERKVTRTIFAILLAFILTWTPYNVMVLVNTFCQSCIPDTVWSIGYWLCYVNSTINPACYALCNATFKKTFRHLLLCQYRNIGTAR
mGluR5, sequence (P41594 21-1212): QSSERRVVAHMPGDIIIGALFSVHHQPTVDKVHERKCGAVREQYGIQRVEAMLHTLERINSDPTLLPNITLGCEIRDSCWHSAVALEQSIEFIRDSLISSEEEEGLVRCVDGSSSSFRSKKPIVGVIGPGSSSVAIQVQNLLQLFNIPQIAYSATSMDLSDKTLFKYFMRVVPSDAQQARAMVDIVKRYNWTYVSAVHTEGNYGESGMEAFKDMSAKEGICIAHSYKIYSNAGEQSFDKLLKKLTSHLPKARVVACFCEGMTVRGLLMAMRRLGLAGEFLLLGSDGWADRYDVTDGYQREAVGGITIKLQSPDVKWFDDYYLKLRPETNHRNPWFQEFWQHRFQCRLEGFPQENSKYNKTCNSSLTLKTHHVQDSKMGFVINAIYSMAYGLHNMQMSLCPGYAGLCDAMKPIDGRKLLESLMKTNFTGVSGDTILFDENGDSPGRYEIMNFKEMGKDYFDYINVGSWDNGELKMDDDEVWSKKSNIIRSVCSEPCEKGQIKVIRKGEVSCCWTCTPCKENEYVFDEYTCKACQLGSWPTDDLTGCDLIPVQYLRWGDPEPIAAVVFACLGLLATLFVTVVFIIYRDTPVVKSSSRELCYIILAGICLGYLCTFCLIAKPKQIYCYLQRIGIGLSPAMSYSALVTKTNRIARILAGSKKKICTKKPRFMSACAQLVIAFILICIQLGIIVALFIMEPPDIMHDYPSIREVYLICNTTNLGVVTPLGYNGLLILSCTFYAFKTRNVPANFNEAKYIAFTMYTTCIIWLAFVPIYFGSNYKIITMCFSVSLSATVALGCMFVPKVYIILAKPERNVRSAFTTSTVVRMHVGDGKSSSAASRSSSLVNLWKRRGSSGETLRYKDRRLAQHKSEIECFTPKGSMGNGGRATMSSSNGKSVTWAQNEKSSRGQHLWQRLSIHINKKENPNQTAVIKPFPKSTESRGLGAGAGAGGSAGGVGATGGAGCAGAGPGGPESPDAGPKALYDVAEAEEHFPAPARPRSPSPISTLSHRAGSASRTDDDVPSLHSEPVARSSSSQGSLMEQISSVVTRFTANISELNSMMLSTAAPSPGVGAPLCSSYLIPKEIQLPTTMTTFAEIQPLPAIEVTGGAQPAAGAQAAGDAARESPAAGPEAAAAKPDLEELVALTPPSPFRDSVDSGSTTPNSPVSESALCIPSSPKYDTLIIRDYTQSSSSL
Alpha2A, sequence (P08913 whole entry): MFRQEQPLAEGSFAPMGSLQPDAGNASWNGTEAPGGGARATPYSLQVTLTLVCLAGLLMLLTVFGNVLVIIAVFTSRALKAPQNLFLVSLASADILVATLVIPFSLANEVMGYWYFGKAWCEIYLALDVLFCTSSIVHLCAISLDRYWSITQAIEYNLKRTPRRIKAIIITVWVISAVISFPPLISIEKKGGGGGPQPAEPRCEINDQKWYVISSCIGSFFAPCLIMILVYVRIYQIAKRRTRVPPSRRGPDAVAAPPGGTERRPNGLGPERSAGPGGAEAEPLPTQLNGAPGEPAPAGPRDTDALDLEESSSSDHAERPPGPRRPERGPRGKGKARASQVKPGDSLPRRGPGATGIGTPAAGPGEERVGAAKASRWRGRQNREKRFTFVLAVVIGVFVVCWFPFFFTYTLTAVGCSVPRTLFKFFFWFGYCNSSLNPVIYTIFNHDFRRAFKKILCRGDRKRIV
M2, sequence (P08172 whole entry): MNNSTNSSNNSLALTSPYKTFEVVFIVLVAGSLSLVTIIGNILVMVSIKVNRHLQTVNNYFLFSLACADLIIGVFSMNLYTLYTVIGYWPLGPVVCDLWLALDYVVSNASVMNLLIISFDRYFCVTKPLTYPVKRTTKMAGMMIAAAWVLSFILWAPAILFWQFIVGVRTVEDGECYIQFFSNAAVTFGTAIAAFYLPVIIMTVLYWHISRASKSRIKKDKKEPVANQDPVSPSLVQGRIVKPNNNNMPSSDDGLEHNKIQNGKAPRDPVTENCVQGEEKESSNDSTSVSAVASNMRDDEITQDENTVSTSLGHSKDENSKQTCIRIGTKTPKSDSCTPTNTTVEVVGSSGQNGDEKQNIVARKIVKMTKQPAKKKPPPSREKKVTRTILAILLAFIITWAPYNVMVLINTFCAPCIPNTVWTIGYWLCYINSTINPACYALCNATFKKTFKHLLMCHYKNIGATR
5-HT1E, sequence (P28566 whole entry, species assumed): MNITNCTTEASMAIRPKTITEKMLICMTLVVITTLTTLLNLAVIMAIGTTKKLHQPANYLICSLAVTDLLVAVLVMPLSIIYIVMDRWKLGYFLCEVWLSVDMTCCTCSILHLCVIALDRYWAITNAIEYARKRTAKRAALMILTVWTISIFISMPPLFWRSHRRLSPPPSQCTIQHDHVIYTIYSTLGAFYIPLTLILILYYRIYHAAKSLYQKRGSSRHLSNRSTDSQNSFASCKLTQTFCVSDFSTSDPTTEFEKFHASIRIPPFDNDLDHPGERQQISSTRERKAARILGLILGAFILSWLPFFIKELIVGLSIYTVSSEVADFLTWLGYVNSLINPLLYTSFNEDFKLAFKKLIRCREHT

SMILES | % (10 μM) (M5) | Ki (M5) | % (10 μM) (mGluR5) | Ki (mGluR5) | % (10 μM) (Alpha2A) | % (10 μM) (5-HT1A) | Ki (5-HT1A) | % (10 μM) (HERG) | % (10 μM) (M1) | % (10 μM) (M3) | Ki (M3) | % (10 μM) (M4) | % (10 μM) (D3) | % (10 μM) (5-HT6) | % (10 μM) (AMPA) | % (10 μM) (Sigma 1) | % (10 μM) (Beta1) | % (10 μM) (H1) | % (10 μM) (5-HT1E) | % (10 μM) (H2) | further results
O=C(O)c1ccccc1Nc1c(Cl)ccc(OCc2ccccc2)c1Cl [AK3-99B] | 56.99% | > 10 µM | 47.44% | > 10 µM | 65.08% | 50.00% | > 10 µM | −15.95% | 58.54% | 65.66% | > 10 µM | −3.01% | 18.42% | −10.67% | 21.14% | 3.95% | −13.11% | −4.62% | 11.82% | 25.62% | selectivity among CLC-1, CLC-2, CLC-Ka, CLC-Kb (CLC-2): selective for CLC-2; IC50 (CLC-1): > 250 µM; Ki (mGluR2): > 10 µM; Ki (mGluR6): > 10 µM; Ki (mGluR8): > 10 µM; Ki (mGluR4): > 10 µM; Ki (Alpha2A; secondary or functional assay): 3 µM; Ki (M1; secondary or functional assay): > 10 µM; % (10 μM) (Beta3): 32.58%; % (10 μM) (M2): 14.57%; % (10 μM) (Oxytocin): 8.80%
O=C(O)c1cccnc1Nc1c(Cl)ccc(OCc2ccccc2)c1Cl [AK3-238] | 13.55% | > 10 µM | 57.39% | > 10 µM | −2.55% | 53.99% | > 10 µM | −43.87% | 11.29% | 54.64% | > 3 µM | 56.16% | −4.66% | 18.68% | 28.20% | 38.52% | 22.04% | 15.48% | 10.43% | 5.35% | off-target effects among panel of CNS receptors, channels, and transporters [1]: no off-target effects; Ki (HERG; secondary or functional assay): > 10 µM; Ki (M4; secondary or functional assay): > 5 µM; % (10 μM) (V1A): 23.96%; % (10 μM) (A2A): −8.70%; % (10 μM) (V1B): 40.53%; % (10 μM) (Beta3): 24.76%; % (10 μM) (M2): −8.25%; % (10 μM) (Oxytocin): −1.41%
